Test system: NOD-SCID mice bearing isogenic PSMA^+ PC3 PIP and PSMA^− PC3 flu tumors
Assay: Biodistribution in tumor-bearing mice
Conditions: for blood uptake / bone uptake / fat uptake / heart uptake / kidney uptake / large intestine uptake / liver uptake / muscle uptake / salivary gland uptake / small intestine uptake / spleen uptake / stomach uptake / lung uptake / pancreas uptake / bladder (empty) uptake / PSMA^+ PIP tumor uptake / PSMA^− flu tumor uptake: tail vein, ± SD, n = 3–4; for PSMA^+ PIP tumor uptake: PSMA+ PC3 PIP xenograft; for PSMA^− flu tumor uptake: PSMA− PC3 flu xenograft

In the case of O=C(O)CCC(NC(=O)NC(CCCCNC(=O)c1ccc([18F])nc1)C(=O)O)C(=O)O (stereo not shown) [[^18F]DCFPyL, 2-(3-{1-carboxy-5-[(6-[^18F]fluoropyridine-3-carbonyl)-amino]-pentyl}-ureido)-pentanedioic acid, reference compound], the “PSMA^+ PC3 PIP tumor uptake compared to [^18F]YC-88” value (1, 2, and 4 h) is reported as “significantly higher”, the blood uptake (30 min postinjection) is reported as 1.67 ± 0.54 % ID/g and the bone uptake (30 min postinjection) is reported as 1.00 ± 0.51 % ID/g. For the same compound, the fat uptake (30 min postinjection) was 1.42 ± 0.51 % ID/g, the heart uptake (30 min postinjection) was 0.84 ± 0.16 % ID/g and the kidney uptake (30 min postinjection) was 135.28 ± 9.75 % ID/g. It also gave a large intestine uptake (30 min postinjection) of 1.17 ± 0.06 % ID/g, a liver uptake (30 min postinjection) of 3.54 ± 0.20 % ID/g and a muscle uptake (30 min postinjection) of 0.54 ± 0.05 % ID/g. It also gave a salivary gland uptake (30 min postinjection) of 2.60 ± 0.60 % ID/g, a small intestine uptake (30 min postinjection) of 0.83 ± 0.03 % ID/g and a spleen uptake (30 min postinjection) of 10.67 ± 1.68 % ID/g. The stomach uptake (30 min postinjection) was 0.90 ± 0.14 % ID/g, the blood uptake (60 min postinjection) was 0.72 ± 0.22 % ID/g and the fat uptake (60 min postinjection) was 0.84 ± 0.44 % ID/g. The heart uptake (60 min postinjection) was 0.32 ± 0.09 % ID/g, the large intestine uptake (60 min postinjection) was 0.49 ± 0.05 % ID/g and the liver uptake (60 min postinjection) was 3.48 ± 0.21 % ID/g. The lung uptake (60 min postinjection) was 1.41 ± 0.25 % ID/g, the muscle uptake (60 min postinjection) was 0.36 ± 0.18 % ID/g and the pancreas uptake (60 min postinjection) was 0.61 ± 0.21 % ID/g. For the same compound, the salivary gland uptake (60 min postinjection) was 1.57 ± 0.18 % ID/g, the small intestine uptake (60 min postinjection) was 0.56 ± 0.12 % ID/g and the spleen uptake (60 min postinjection) was 5.61 ± 0.56 % ID/g. The stomach uptake (60 min postinjection) was 0.50 ± 0.10 % ID/g, the “bladder (empty) uptake” value (120 min postinjection) was 11.40 ± 9.95 % ID/g and the blood uptake (120 min postinjection) was 0.23 ± 0.05 % ID/g. The bone uptake (120 min postinjection) was 0.37 ± 0.05 % ID/g, the fat uptake (120 min postinjection) was 0.15 ± 0.02 % ID/g and the kidney uptake (120 min postinjection) was 61.23 ± 20.36 % ID/g. The liver uptake (120 min postinjection) was 3.08 ± 0.13 % ID/g, the lung uptake (120 min postinjection) was 0.41 ± 0.09 % ID/g and the muscle uptake (120 min postinjection) was 0.08 ± 0.02 % ID/g. The pancreas uptake (120 min postinjection) was 0.23 ± 0.05 % ID/g, the salivary gland uptake (120 min postinjection) was 0.43 ± 0.15 % ID/g and the small intestine uptake (120 min postinjection) was 0.55 ± 0.50 % ID/g. For the same compound, the spleen uptake (120 min postinjection) was 1.64 ± 0.40 % ID/g, the stomach uptake (120 min postinjection) was 0.21 ± 0.06 % ID/g and the “bladder (empty) uptake” value (240 min postinjection) was 16.85 ± 10.15 % ID/g. The blood uptake (240 min postinjection) was 0.11 ± 0.00 % ID/g, the bone uptake (240 min postinjection) was 0.71 ± 0.40 % ID/g and the fat uptake (240 min postinjection) was 0.10 ± 0.05 % ID/g. It also gave a heart uptake (240 min postinjection) of 0.06 ± 0.01 % ID/g, a kidney uptake (240 min postinjection) of 19.36 ± 2.32 % ID/g and a large intestine uptake (240 min postinjection) of 0.83 ± 1.00 % ID/g. For the same compound, the liver uptake (240 min postinjection) was 2.30 ± 0.28 % ID/g, the lung uptake (240 min postinjection) was 0.16 ± 0.02 % ID/g and the muscle uptake (240 min postinjection) was 0.07 ± 0.04 % ID/g. It also gave a pancreas uptake (240 min postinjection) of 0.09 ± 0.02 % ID/g, a salivary gland uptake (240 min postinjection) of 0.32 ± 0.22 % ID/g and a small intestine uptake (240 min postinjection) of 0.16 ± 0.04 % ID/g. For the same compound, the spleen uptake (240 min postinjection) was 0.55 ± 0.11 % ID/g, the stomach uptake (240 min postinjection) was 0.09 ± 0.03 % ID/g and the “PSMA^+ PIP tumor uptake” value (30 min postinjection) was 64.85 ± 19.22 % ID/g. For the same compound, the “PSMA^+ PIP tumor uptake” value (60 min postinjection) was 84.29 ± 12.29 % ID/g, the “PSMA^+ PIP tumor uptake” value (120 min postinjection) was 69.55 ± 1.71 % ID/g and the “PSMA^+ PIP tumor uptake” value (240 min postinjection) was 74.34 ± 7.28 % ID/g. For the same compound, the “PSMA^− flu tumor uptake” value (30 min postinjection) was 1.50 ± 0.71 % ID/g, the “PSMA^− flu tumor uptake” value (60 min postinjection) was 0.46 ± 0.06 % ID/g and the “PSMA^− flu tumor uptake” value (120 min postinjection) was 0.21 ± 0.06 % ID/g. The “PSMA^− flu tumor uptake” value (240 min postinjection) was 0.21 ± 0.17 % ID/g.

— article PMC5516890 (Bioconjugate chemistry, 2016)
